“And” between values parts separate entries of the source, which are not always exact repeats. Equal entries are not always repeated.
Legend:
Experiment in all cases: radiometric filter-binding kinase assay
MAP2K1 (human) = MAP2K1 (human) (UniProt Q02750)
MAPK13 (human) = MAPK13 (human) (UniProt O15264)
PRKCG (human) = PRKCG (human) (UniProt P05129)
YES1 (human) = YES1 (human) (UniProt P07947)
TEK (human) = TEK (human) (UniProt Q02763)
MAPK8 (human) = MAPK8 (human) (UniProt P45983)
NEK6 (human) = NEK6 (human) (UniProt Q9HC98)
BRSK1 (human) = BRSK1 (human) (UniProt Q8TDC3)
MAPK3 (human) = MAPK3 (human) (UniProt P27361)
PRKCZ (human) = PRKCZ (human) (UniProt Q05513)
INSR (human) = INSR (human) (UniProt P06213)
Chain of INSR (human) (P06213 whole entry, looked up): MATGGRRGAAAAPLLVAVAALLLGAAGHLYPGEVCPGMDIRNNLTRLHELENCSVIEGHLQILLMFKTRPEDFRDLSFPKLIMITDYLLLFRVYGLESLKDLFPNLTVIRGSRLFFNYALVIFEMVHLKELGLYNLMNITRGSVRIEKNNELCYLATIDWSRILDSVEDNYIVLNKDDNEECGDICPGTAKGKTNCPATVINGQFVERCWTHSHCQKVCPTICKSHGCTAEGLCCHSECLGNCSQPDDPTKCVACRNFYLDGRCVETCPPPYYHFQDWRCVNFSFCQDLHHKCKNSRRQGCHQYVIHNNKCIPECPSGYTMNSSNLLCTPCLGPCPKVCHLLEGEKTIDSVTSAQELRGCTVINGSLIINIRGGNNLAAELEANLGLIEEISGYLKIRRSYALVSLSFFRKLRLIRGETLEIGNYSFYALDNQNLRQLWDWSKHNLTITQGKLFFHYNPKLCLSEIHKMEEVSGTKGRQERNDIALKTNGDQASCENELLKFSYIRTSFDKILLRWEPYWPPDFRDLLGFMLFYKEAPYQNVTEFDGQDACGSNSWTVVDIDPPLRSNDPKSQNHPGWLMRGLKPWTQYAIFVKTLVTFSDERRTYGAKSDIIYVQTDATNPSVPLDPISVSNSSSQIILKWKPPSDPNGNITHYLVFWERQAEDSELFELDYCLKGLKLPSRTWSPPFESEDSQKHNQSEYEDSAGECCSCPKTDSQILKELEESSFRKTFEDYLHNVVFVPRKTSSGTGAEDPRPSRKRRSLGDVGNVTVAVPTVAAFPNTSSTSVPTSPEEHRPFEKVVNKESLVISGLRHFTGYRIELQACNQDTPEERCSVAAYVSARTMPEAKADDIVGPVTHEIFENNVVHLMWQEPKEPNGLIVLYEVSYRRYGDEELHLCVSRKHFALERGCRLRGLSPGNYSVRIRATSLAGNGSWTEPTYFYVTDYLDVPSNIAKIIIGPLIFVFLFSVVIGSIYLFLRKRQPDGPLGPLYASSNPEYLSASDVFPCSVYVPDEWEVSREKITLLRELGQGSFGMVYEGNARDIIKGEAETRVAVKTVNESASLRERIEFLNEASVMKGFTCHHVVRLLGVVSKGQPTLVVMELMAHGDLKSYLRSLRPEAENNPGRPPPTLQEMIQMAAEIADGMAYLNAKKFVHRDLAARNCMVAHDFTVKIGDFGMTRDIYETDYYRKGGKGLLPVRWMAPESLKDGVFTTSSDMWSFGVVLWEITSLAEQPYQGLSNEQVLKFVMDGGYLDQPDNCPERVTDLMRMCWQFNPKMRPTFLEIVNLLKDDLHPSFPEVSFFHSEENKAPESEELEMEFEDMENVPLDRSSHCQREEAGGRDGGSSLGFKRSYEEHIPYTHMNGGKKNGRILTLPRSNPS

STK16 (human) = STK16 (human) (UniProt O75716)
CaMK1 (human) = CaMK1 (human) (UniProt Q14012)
EPHB1 (human) = EPHB1 (human) (UniProt P54762)
Chain of EPHB1 (human) (P54762 whole entry, looked up): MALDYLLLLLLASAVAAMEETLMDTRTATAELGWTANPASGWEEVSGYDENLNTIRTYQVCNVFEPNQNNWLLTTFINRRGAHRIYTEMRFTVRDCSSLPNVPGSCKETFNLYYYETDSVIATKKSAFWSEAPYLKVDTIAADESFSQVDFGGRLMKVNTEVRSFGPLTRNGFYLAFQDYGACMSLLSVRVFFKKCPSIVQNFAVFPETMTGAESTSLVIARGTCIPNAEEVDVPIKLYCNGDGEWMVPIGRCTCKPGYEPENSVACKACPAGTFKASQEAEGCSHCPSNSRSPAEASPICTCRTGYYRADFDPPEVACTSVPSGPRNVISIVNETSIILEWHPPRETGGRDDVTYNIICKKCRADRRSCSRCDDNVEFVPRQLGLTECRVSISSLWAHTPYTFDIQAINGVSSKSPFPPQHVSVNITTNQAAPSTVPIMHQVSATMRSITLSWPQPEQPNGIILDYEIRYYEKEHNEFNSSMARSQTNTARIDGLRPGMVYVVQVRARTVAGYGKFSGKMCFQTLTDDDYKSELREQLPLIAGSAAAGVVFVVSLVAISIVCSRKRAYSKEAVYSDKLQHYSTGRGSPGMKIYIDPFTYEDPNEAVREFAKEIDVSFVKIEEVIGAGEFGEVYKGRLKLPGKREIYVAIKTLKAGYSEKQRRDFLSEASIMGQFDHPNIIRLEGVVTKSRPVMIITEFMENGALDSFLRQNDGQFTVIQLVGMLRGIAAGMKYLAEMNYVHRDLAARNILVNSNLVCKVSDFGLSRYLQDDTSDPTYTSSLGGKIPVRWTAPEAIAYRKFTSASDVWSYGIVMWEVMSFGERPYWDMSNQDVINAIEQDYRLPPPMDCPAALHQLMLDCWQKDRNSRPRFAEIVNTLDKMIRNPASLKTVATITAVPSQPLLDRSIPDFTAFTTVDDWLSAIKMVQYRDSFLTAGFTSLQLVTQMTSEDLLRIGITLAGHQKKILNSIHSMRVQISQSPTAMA

MAPK14 (human) = MAPK14 (human) (UniProt Q16539)
PDPK1 (human) = PDPK1 (human) (UniProt O15530)
MAPKAPK2 (human) = MAPKAPK2 (human) (UniProt P49137)
FGFR1 (human) = FGFR1 (human) (UniProt P11362)
MAPKAPK3 (human) = MAPKAPK3 (human) (UniProt Q16644)
Chain of MAPKAPK3 (human) (Q16644 whole entry, looked up): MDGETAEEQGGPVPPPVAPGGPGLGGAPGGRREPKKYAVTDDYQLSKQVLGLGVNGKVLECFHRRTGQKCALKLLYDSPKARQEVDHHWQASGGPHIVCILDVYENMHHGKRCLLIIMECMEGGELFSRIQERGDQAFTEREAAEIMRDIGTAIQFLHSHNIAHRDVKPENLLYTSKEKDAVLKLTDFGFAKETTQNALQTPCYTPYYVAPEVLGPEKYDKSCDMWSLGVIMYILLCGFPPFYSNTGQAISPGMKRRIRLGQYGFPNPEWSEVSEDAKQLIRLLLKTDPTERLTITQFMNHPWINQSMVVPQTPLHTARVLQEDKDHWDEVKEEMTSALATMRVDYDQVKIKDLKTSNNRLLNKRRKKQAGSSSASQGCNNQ

PRKAA1 or PRKAA2 (rat) = settings: accession and sequence are those of the human protein
CAMKK2 (human) = CAMKK2 (human) (UniProt Q96RR4)
NUAK1 (human) = NUAK1 (human) (UniProt O60285)
[1] = target: STK11 CAB39 STRADA (human) (UniProt Q9Y376+Q7RTN6+Q15831)
Chain of STK11 CAB39 STRADA (human) (Q15831 whole entry, looked up): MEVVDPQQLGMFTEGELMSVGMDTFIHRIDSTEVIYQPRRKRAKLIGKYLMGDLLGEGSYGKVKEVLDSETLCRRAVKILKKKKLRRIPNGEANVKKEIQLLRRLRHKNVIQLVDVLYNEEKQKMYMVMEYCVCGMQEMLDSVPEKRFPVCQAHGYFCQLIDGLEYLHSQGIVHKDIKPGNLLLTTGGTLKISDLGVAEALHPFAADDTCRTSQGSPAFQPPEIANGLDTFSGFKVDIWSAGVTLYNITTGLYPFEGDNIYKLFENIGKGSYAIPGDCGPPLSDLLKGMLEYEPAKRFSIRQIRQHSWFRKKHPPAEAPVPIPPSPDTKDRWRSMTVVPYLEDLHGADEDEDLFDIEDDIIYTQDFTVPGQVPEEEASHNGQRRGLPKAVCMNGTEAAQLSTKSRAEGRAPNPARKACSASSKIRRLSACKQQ
Chain of STK11 CAB39 STRADA (human) (Q7RTN6 whole entry, looked up): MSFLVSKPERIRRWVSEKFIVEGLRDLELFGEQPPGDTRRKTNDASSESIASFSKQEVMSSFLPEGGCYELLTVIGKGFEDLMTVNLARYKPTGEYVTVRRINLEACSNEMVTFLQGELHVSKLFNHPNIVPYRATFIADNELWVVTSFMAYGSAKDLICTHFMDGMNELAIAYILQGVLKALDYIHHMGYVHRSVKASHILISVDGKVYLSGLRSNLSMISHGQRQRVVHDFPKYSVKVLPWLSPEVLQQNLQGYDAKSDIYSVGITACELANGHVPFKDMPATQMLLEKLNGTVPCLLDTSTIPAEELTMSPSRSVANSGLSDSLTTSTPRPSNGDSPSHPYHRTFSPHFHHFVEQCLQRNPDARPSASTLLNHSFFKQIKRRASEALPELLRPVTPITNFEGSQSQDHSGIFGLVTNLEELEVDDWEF
Chain of STK11 CAB39 STRADA (human) (Q9Y376 whole entry, looked up): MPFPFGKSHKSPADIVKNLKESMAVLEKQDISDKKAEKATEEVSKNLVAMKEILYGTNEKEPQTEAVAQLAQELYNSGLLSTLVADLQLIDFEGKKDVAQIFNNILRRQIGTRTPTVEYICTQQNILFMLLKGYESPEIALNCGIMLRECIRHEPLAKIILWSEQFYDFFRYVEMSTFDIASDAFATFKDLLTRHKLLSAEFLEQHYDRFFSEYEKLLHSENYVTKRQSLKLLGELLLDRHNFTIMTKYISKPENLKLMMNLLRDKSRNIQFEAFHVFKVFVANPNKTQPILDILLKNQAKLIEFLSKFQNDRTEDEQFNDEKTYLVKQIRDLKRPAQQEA

MARK1 (human) = MARK1 (human) (UniProt Q9P0L2)
EPHA4 (human) = EPHA4 (human) (UniProt P54764)
DYRK3 (human) = DYRK3 (human) (UniProt O43781)
Chain of DYRK3 (human) (O43781 whole entry, looked up): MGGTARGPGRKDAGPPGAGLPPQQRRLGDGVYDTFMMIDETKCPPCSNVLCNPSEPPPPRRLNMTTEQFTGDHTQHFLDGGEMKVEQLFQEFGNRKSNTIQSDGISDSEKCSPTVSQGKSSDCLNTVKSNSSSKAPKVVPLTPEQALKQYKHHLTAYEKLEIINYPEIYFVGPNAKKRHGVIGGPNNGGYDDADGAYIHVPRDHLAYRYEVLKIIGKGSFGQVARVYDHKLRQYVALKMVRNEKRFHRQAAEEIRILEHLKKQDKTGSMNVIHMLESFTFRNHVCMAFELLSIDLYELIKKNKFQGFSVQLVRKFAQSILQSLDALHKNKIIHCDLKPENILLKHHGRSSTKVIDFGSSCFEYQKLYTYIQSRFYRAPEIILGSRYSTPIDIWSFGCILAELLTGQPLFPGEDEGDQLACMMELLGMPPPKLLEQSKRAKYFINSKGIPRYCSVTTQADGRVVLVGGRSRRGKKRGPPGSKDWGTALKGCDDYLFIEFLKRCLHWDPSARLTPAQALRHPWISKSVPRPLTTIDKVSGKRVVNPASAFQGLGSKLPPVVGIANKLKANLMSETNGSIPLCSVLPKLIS

LCK (mouse) = settings: accession and sequence are those of the human protein
ERBB4 (human) = ERBB4 (human) (UniProt Q15303)

Chain of MAP2K1 (human) (Q02750 whole entry, looked up): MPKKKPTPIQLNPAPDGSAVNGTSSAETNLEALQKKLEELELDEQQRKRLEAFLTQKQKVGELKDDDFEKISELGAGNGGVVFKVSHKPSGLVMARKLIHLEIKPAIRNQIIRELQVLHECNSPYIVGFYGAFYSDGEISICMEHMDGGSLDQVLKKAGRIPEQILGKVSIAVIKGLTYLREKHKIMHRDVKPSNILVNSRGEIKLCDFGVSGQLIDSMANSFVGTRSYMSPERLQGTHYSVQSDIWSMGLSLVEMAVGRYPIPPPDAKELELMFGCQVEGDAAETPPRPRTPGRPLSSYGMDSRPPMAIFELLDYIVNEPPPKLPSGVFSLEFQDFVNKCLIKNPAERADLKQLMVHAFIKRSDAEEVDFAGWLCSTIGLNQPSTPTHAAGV

residual activity (MAP2K1 (human); compound 0.1 µM): 106%
residual activity (MAP2K1 (human); compound 1.0 µM): 108%
residual activity (MAP2K1 (human); compound 10.0 µM): 93.2%
residual activity (MAPK13 (human); compound 0.1 µM): 98.7%
residual activity (MAPK13 (human); compound 1.0 µM): 33.7%
residual activity (MAPK13 (human); compound 10.0 µM): 7.2%
residual activity (PRKCG (human); compound 0.1 µM): 108%
residual activity (PRKCG (human); compound 1.0 µM): 102%
residual activity (PRKCG (human); compound 10.0 µM): 106%
residual activity (YES1 (human); compound 0.1 µM): 52.9%
residual activity (YES1 (human); compound 1.0 µM): 9.77%
residual activity (YES1 (human); compound 10.0 µM): 10.6%
residual activity (TEK (human); compound 0.1 µM): 95.2%
residual activity (TEK (human); compound 1.0 µM): 91.2%
residual activity (TEK (human); compound 10.0 µM): 60.4%
residual activity (MAPK8 (human); compound 0.1 µM): 93.8%
residual activity (MAPK8 (human); compound 1.0 µM): 61.6%
residual activity (MAPK8 (human); compound 10.0 µM): 14.4%
residual activity (NEK6 (human); compound 0.1 µM): 104%
residual activity (NEK6 (human); compound 1.0 µM): 84.6%
residual activity (NEK6 (human); compound 10.0 µM): 73.5%
residual activity (BRSK1 (human); compound 0.1 µM): 101%
residual activity (BRSK1 (human); compound 1.0 µM): 96.2%
residual activity (BRSK1 (human); compound 10.0 µM): 109%
residual activity (MAPK3 (human); compound 0.1 µM): 99%
residual activity (MAPK3 (human); compound 1.0 µM): 103%
residual activity (MAPK3 (human); compound 10.0 µM): 99.7%
residual activity (PRKCZ (human); compound 0.1 µM): 99.4%
residual activity (PRKCZ (human); compound 1.0 µM): 96%
residual activity (PRKCZ (human); compound 10.0 µM): 92.7%
residual activity (INSR (human); compound 0.1 µM): 86.1%
residual activity (INSR (human); compound 1.0 µM): 81.6%
residual activity (INSR (human); compound 10.0 µM): 18%
residual activity (STK16 (human); compound 0.1 µM): 103%
residual activity (STK16 (human); compound 1.0 µM): 90.7%
residual activity (STK16 (human); compound 10.0 µM): 99.2%
residual activity (CaMK1 (human); compound 0.1 µM): 68.7%
residual activity (CaMK1 (human); compound 1.0 µM): 17.2%
residual activity (CaMK1 (human); compound 10.0 µM): 3.79%
residual activity (EPHB1 (human); compound 0.1 µM): 111%
residual activity (EPHB1 (human); compound 1.0 µM): 106%
residual activity (EPHB1 (human); compound 10.0 µM): 66.9%
residual activity (MAPK14 (human); compound 0.1 µM): 41%
residual activity (MAPK14 (human); compound 1.0 µM): 3.48%
residual activity (MAPK14 (human); compound 10.0 µM): 2.61%
residual activity (PDPK1 (human); compound 0.1 µM): 101% and 98%
residual activity (PDPK1 (human); compound 1.0 µM): 100% and 86.1%
residual activity (MAPKAPK2 (human); compound 0.1 µM): 110%
residual activity (MAPKAPK2 (human); compound 1.0 µM): 122%
residual activity (MAPKAPK2 (human); compound 10.0 µM): 113%
residual activity (FGFR1 (human); compound 0.1 µM): 79.1%
residual activity (FGFR1 (human); compound 1.0 µM): 23.5%
residual activity (FGFR1 (human); compound 10.0 µM): 8.48%
residual activity (MAPKAPK3 (human); compound 0.1 µM): 90.1%
residual activity (MAPKAPK3 (human); compound 1.0 µM): 82.3%
residual activity (MAPKAPK3 (human); compound 10.0 µM): 96.7%
residual activity (PRKAA1 or PRKAA2 (rat); compound 0.1 µM): 106%
residual activity (PRKAA1 or PRKAA2 (rat); compound 1.0 µM): 91.7%
residual activity (PRKAA1 or PRKAA2 (rat); compound 10.0 µM): 85.2%
residual activity (CAMKK2 (human); compound 0.1 µM): 98.3%
residual activity (CAMKK2 (human); compound 1.0 µM): 70.7%
residual activity (CAMKK2 (human); compound 10.0 µM): 20.7%
residual activity (NUAK1 (human); compound 0.1 µM): 85.8%
residual activity (NUAK1 (human); compound 1.0 µM): 90.5%
residual activity (NUAK1 (human); compound 10.0 µM): 84.9%
residual activity ([1]; compound 0.1 µM): 117%
residual activity ([1]; compound 1.0 µM): 107%
residual activity ([1]; compound 10.0 µM): 129%
residual activity (MARK1 (human); compound 0.1 µM): 114%
residual activity (MARK1 (human); compound 1.0 µM): 97.2%
residual activity (MARK1 (human); compound 10.0 µM): 103%
residual activity (EPHA4 (human); compound 0.1 µM): 96.3%
residual activity (EPHA4 (human); compound 1.0 µM): 28.7%
residual activity (EPHA4 (human); compound 10.0 µM): 7.58%
residual activity (DYRK3 (human); compound 0.1 µM): 96.5%
residual activity (DYRK3 (human); compound 1.0 µM): 86.3%
residual activity (DYRK3 (human); compound 10.0 µM): 82%
residual activity (LCK (mouse); compound 0.1 µM): 12.7%
residual activity (LCK (mouse); compound 1.0 µM): 0.851%
residual activity (LCK (mouse); compound 10.0 µM): 5.77%
residual activity (ERBB4 (human); compound 0.1 µM): 105%
residual activity (ERBB4 (human); compound 1.0 µM): 76.8%
residual activity (ERBB4 (human); compound 10.0 µM): 36.9%
Compound: CCN1CCN(Cc2ccc(NC(=O)c3ccc(C)c(Oc4ccnc5[nH]ccc45)c3)cc2C(F)(F)F)CC1
